Where two headings read alike, the source gives them in different places. Blank lines part the entries; values can stand above or below the compound they belong to.
Experiments:
[1] = amide bond, 13-membered ring, CDMT/NMM, DMF
[2] = target: T1, CFTR (F508del/MF-HBE cells) (Homo sapiens, UniProt P13569, DEL508-508); assay: Ussing chamber assay of CFTR-mediated short-circuit currents, Assay A (0.1 μM to 25 μM, 6 concentrations); format: cell-based; details: with 33 nM potentiator and 18 μM Tezacaftor, 20% human serum; for Emax: 18-24 hours, read-out: A Max activity (%)
T1 construct: human bronchial epithelial (HBE) cells derived from CF subjects heterozygous for F508del and a minimal function CFTR mutation (F508del/MF-HBE); endogenous in cells; host or cells: Primary human bronchial epithelial cells from CF subjects (F508del/MF genotype), differentiated at an air-liquid interface
Method in brief: (§1)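 F508del/MF-HBE cells grown at air-liquid interface were incubated 18-24 h at 37 °C in 20% human serum with correctors plus 18 μM tezacaftor and a fixed partner compound (33 nM for concentration series, 44 nM at 1 μM). ISC was read at 0 mV after 20 μM forskolin, minus the post-inhibitor current.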

[3] = target: T1, CFTR (F508del/MF-HBE cells); assay: Ussing chamber assay of CFTR-mediated short-circuit currents, Assay C (0.026 μM to 25 μM, 6 concentrations); format: cell-based; details: with 33 nM potentiator and 18 μM Tezacaftor, 20% human serum; for Emax: read-out: C Max activity (%)
Method in brief: as §1

[4] = target: T1, CFTR (F508del/MF-HBE cells); assay: Ussing chamber assay of CFTR-mediated short-circuit currents, Assay D (single concentration of 1 μM); format: cell-based; details: with 44 nM potentiator and 18 μM Tezacaftor, 20% human serum
Method in brief: as §1

[5] = target: T1, CFTR (F508del/MF-HBE cells); assay: Ussing chamber assay of CFTR-mediated short-circuit currents, Assay B (0.00001 μM to 25 μM, 12 concentrations); format: cell-based; details: with 33 nM potentiator and 18 μM Tezacaftor, 20% human serum; for Emax: 18-24 hours, read-out: B Max activity (%)
Procedure: Ussing chamber experiments were performed using human bronchial epithelial (HBE) cells derived from CF subjects heterozygous for F508del and a minimal function CFTR mutation (F508del/MF-HBE) and cultured as previously described (Neuberger T, Burton B, Clark H, Van Goor F Methods Mol Biol 2011:741:39-54). After four days the apical media was removed, and the cells were grown at an air liquid interface for >14 days prior to use.
To isolate the CFTR-mediated short-circuit (ISC) current, F508del/MF-HBE grown on Costar® Snapwell™ cell culture inserts were mounted in an Ussing chamber and the transepithelial ISC was measured under voltage-clamp recording conditions (Vhold=0 mV) at 37° C. The basolateral solution contained (in mM) 145 NaCl, 0.83 K2HPO4, 3.3 KH2PO4, 1.2 MgCl2, 1.2 CaCl2, 10 Glucose, 10 HEPES (pH adjusted to 7.4 with NaOH) and the apical solution contained (in mM) 145 NaGluconate, 1.2 MgCl2, 1.2 CaCl2, 10 glucose, 10 HEPES (pH adjusted to 7.4 with NaOH) and 30 μM amiloride to block the epithelial sodium channel. Forskolin (20 μM) was added to the apical surface to activate CFTR, followed by apical addition of a CFTR inhibitor cocktail consisting of BPO, GlyH-101, and CFTR inhibitor 172 (each at 20 μM final assay concentration) to specifically isolate CFTR currents. The CFTR-mediated ISC (μA/cm^2) for each condition was determined from the peak forskolin response to the steady-state current following inhibition.
The activity of the CFTR corrector compounds on the CFTR-mediated ISC was determined in Ussing chamber studies as described above. The F508del/MF-HBE cell cultures were either incubated with the corrector compounds at a range of concentrations in combination with 33 nM (6R,12R)-17-amino-12-methyl-6,15-bis(trifluoromethyl)-13,19-dioxa-3,4,18-triazatricyclo[12.3.1.12,5]nonadeca-1(18),2,4,14,16-pentaen-6-ol and 18 μM Tezacaftor or were incubated with the corrector compounds at a single fixed concentration of 1 μM in combination with 44 nM (6R,12R)-17-amino-12-methyl-6,15-bis(trifluoromethyl)-13,19-dioxa-3,4,18-triazatricyclo[12.3.1.12,5]nonadeca-1(18),2,4,14,16-pentaen-6-ol and 18 μM Tezacaftor for 18-24 hours at 37° C. and in the presence of 20% human serum. The concentration of corrector compounds with 44 nM or 33 nM (6R,12R)-17-amino-12-methyl-6,15-bis(trifluoromethyl)-13,19-dioxa-3,4,18-triazatricyclo[12.3.1.12,5]nonadeca-1(18),2,4,14,16-pentaen-6-ol and 18 μM Tezacaftor during the 18-24 hours incubations was kept constant throughout the Ussing chamber measurement of the CFTR-mediated ISC to ensure compounds were present throughout the entire experiment. The efficacy and potency of the putative F508del correctors was compared to that of the known Vertex corrector, (14S)-8-[3-(2-{Dispiro[2.0.2.1]heptan-7-yl}ethoxy)-1H-pyrazol-1-yl]-12,12-dimethyl-2λ^6-thia-3,9,11,18,23-pentaazatetracyclo[17.3.1.111,14.05,10]tetracosa-1(22),5,7,9,19(23),20-hexaene-2,2,4-trione, in combination with 18 μM Tezacaftor and 1 μM Ivacaftor.
• Assay A: 0.1 μM to 25 μM, 6 concentrations • Assay B: 0.00001 μM to 25 μM, 12 concentrations • Assay C: 0.026 μM to 25 μM, 6 concentrations • Assay D: Activity at single concentration of 1 μM

T1 sequence (P13569 with tags, fused parts or gaps DEL508-508): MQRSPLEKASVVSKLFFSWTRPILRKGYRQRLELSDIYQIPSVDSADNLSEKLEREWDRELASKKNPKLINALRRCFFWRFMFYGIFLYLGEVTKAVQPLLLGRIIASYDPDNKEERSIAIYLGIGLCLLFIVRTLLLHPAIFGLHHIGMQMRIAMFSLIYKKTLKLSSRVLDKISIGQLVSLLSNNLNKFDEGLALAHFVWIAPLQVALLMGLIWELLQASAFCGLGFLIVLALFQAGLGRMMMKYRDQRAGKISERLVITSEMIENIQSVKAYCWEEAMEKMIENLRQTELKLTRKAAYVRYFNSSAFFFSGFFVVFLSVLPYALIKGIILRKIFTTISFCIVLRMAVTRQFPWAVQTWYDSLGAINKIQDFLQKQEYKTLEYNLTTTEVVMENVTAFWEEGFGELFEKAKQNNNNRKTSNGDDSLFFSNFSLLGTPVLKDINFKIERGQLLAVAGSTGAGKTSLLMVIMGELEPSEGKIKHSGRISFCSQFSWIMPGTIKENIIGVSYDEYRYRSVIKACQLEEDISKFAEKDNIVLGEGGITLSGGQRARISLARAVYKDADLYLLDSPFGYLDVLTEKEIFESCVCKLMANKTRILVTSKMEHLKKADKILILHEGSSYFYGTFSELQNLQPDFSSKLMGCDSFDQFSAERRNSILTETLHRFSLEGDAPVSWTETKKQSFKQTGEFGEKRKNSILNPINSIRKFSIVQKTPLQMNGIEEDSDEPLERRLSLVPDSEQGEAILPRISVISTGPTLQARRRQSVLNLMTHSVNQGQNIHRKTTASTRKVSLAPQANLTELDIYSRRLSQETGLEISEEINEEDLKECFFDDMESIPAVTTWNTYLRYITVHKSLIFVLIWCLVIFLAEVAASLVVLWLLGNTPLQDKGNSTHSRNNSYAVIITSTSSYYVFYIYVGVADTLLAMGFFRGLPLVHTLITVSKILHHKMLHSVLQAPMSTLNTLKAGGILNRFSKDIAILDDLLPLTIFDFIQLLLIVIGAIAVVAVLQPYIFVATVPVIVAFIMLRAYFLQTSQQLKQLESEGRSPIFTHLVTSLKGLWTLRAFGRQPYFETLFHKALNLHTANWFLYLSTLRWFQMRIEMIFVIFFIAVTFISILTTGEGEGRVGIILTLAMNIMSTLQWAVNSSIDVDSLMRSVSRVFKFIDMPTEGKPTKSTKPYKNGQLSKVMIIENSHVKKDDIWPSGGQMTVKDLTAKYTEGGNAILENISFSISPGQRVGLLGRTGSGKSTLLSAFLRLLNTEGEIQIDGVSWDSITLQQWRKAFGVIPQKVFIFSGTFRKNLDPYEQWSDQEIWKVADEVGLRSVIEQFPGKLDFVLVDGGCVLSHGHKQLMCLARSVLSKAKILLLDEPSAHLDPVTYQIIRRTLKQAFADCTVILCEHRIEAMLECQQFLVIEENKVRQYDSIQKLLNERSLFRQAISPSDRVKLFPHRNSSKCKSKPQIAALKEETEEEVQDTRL

Structure (SMILES): CCC(CC)[C@@H]1COc2cc(-c3c(C)cccc3C)nc(n2)NS(=O)(=O)c2cccc(c2)C(=O)N1Cc1cnc2oc(C(C)(C)C)cc2n1 [IV-48, (11R)-12-[(6-tert-butylfuro[2,3-b]pyrazin-2-yl)methyl]-6-(2,6-dimethylphenyl)-11-(1-ethylpropyl)-2,2-dioxo-9-oxa-2λ^6-thia-3,5,12,19-tetrazatricyclo[12.3.1.14,8]nonadeca-1(18),4,6,8(19),14,16-hexaen-13-one]
EC50 [3]: 1000 to 3000 nM | Emax [3]: > 60% | ring closure, yield after HPLC ([1]; from CCC(CC)[C@H](COc1cc(-c2c(C)cccc2C)nc(NS(=O)(=O)c2cccc(C(=O)O)c2)n1)NCc1cnc2oc(C(C)(C)C)cc2n1, 11.1 mM, 25.0 °C, 18.0 h): 52% | D act. at 1 μM (%) [4]: +++ (+++ is >60%)

Structure (SMILES): Cc1cccc(C)c1-c1cc2nc(n1)NS(=O)(=O)c1cccc(c1)C(=O)N(Cc1nc3c(cc1F)cc(C(C)C)n3C)[C@H](CC13CC(C1)C3)CO2 [Compound I-87, (11R)-11-(1-bicyclo[1.1.1]pentanylmethyl)-6-(2,6-dimethylphenyl)-12-[(5-fluoro-2-isopropyl-1-methyl-pyrrolo[2,3-b]pyridin-6-yl)methyl]-2,2-dioxo-9-oxa-2λ^6-thia-3,5,12,19-tetrazatricyclo[12.3.1.14,8]nonadeca-1(18),4(19),5,7,14,16-hexaen-13-one]
ring closure, yield after HPLC ([1]; from Cc1cccc(C)c1-c1cc(OC[C@@H](CC23CC(C2)C3)NCc2nc3c(cc2F)cc(C(C)C)n3C)nc(NS(=O)(=O)c2cccc(C(=O)O)c2)n1, 10.7 mM, 24.5 h): 39% | Emax [2]: > 60% | EC50 [2]: < 1000 nM

Structure (SMILES): Cc1cccc(C)c1-c1cc2nc(n1)NS(=O)(=O)c1cccc(c1)C(=O)N(Cc1cnc3oc(C4CCC4)cc3n1)[C@H](CC13CC(C1)C3)CO2 [Compound I-134, (11R)-11-(1-Bicyclo[1.1.1]pentanylmethyl)-12-[(6-cyclobutylfuro[2,3-b]pyrazin-2-yl)methyl]-6-(2,6-dimethylphenyl)-2,2-dioxo-9-oxa-2λ^6-thia-3,5,12,19-tetrazatricyclo[12.3.1.14,8]nonadeca-1(18),4(19),5,7,14,16-hexaen-13-one]
ring closure, yield after HPLC ([1]; from Cc1cccc(C)c1-c1cc(OC[C@@H](CC23CC(C2)C3)NCc2cnc3oc(C4CCC4)cc3n2)nc(NS(=O)(=O)c2cccc(C(=O)O)c2)n1, 28.4 mM, 2.0 h): 91% | Emax [5]: > 60% | EC50 [5]: < 1000 nM

Structure (SMILES): Cc1cccc(C)c1-c1cc2nc(n1)NS(=O)(=O)c1cccc(c1)C(=O)N(Cc1cnc3oc(C(C)C)c(C)c3n1)[C@H](CC13CC(C1)C3)CO2 [Compound I-62, (11R)-11-(1-bicyclo[1.1.1]pentanylmethyl)-6-(2,6-dimethylphenyl)-12-[(6-isopropyl-7-methyl-furo[2,3-b]pyrazin-2-yl)methyl]-2,2-dioxo-9-oxa-2λ^6-thia-3,5,12,19-tetrazatricyclo[12.3.1.14,8]nonadeca-1(18),4(19),5,7,14,16-hexaen-13-one]
ring closure, yield after HPLC ([1]; from Cc1cccc(C)c1-c1cc(OC[C@@H](CC23CC(C2)C3)NCc2cnc3oc(C(C)C)c(C)c3n2)nc(NS(=O)(=O)c2cccc(C(=O)O)c2)n1, 39.5 mM, 14.0 h): 70% | Emax [2]: > 60% | EC50 [2]: < 1000 nM

Structure (SMILES): Cc1cccc(C)c1-c1cc2nc(n1)NS(=O)(=O)c1cccc(c1)C(=O)N(Cc1cnc3oc(C)c(C4CC4)c3n1)[C@H](COC(C)C)CO2 [Compound I-26, (11R)-12-[(7-cyclopropyl-6-methyl-furo[2,3-b]pyrazin-2-yl)methyl]-6-(2,6-dimethylphenyl)-11-(isopropoxymethyl)-2,2-dioxo-9-oxa-2λ^6-thia-3,5,12,19-tetrazatricyclo[12.3.1.14,8]nonadeca-1(18),4(19),5,7,14,16-hexaen-13-one]
ring closure, yield after HPLC ([1]; from Cc1cccc(C)c1-c1cc(OC[C@@H](COC(C)C)NCc2cnc3oc(C)c(C4CC4)c3n2)nc(NS(=O)(=O)c2cccc(C(=O)O)c2)n1, 12.8 mM, 16.5 h): 61% | Emax [2]: > 60% | EC50 [2]: < 1000 nM

Continued, in another order:

Emax [2]: > 60% | EC50 [2]: < 1000 nM
Structure (SMILES): Cc1cccc(C)c1-c1cc2nc(n1)NS(=O)(=O)c1cccc(c1)C(=O)N(Cc1cnc3oc(C(C)C)cc3n1)[C@H](CCC1(C)CCC1)CO2 [Compound I-13, (11R)-6-(2,6-dimethylphenyl)-12-[(6-isopropylfuro[2,3-b]pyrazin-2-yl)methyl]-11-[2-(1-methylcyclobutyl)ethyl]-2,2-dioxo-9-oxa-2λ^6-thia-3,5,12,19-tetrazatricyclo[12.3.1.14,8]nonadeca-1(18),4(19),5,7,14,16-hexaen-13-one]
ring closure, yield after HPLC ([1]; from Cc1cccc(C)c1-c1cc(OC[C@@H](CCC2(C)CCC2)NCc2cnc3oc(C(C)C)cc3n2)nc(NS(=O)(=O)c2cccc(C(=O)O)c2)n1, 13.5 mM, 16.5 h): 37%

Emax [5]: > 60% | EC50 [5]: 3000 to 30000 nM
Structure (SMILES): Cc1cccc(C)c1-c1cc2nc(n1)NS(=O)(=O)c1cccc(c1)C(=O)N(Cc1cnc3oc(C4CC4)cc3n1)[C@H](CC1(F)CCC1)CO2 [Compound I-123, (11R)-12-[(6-cyclopropylfuro[2,3-b]pyrazin-2-yl)methyl]-6-(2,6-dimethylphenyl)-11-[(1-fluorocyclobutyl)methyl]-2,2-dioxo-9-oxa-2λ^6-thia-3,5,12,19-tetrazatricyclo[12.3.1.14,8]nonadeca-1(18),4(19),5,7,14,16-hexaen-13-one]
ring closure, yield after HPLC ([1]; from Cc1cccc(C)c1-c1cc(OC[C@@H](CC2(F)CCC2)NCc2cnc3oc(C4CC4)cc3n2)nc(NS(=O)(=O)c2cccc(C(=O)O)c2)n1, 27.1 mM, 2.08 h): 53%

Emax ([3]; 18-24 hours): > 60% | EC50 [3]: < 1000 nM | D activity at 1 μM (%) ([4]; 18-24 hours): +++ (+++ is >60%)
Structure (SMILES): Cc1cccc(C)c1-c1cc2nc(n1)NS(=O)(=O)c1cccc(c1)C(=O)N(Cc1cnc3cc(C4(C)CC4)n(C)c3n1)[C@H](CC13CC(C1)C3)CO2 [Compound I-227, (11R)-11-(1-Bicyclo[1.1.1]pentanylmethyl)-6-(2,6-dimethylphenyl)-12-[[5-methyl-6-(1-methylcyclopropyl)pyrrolo[2,3-b]pyrazin-3-yl]methyl]-2,2-dioxo-9-oxa-2λ^6-thia-3,5,12,19-tetrazatricyclo[12.3.1.14,8]nonadeca-1(18),4(19),5,7,14,16-hexaen-13-one]
ring closure, yield after HPLC ([1]; from Cc1cccc(C)c1-c1cc(OC[C@@H](CC23CC(C2)C3)NCc2cnc3cc(C4(C)CC4)n(C)c3n2)nc(NS(=O)(=O)c2cccc(C(=O)O)c2)n1, 25.0 °C): 66%
